The source of these data is patent US6344324B2, “Quantification of cellular injury using expression of a fluorescent protein under the control of the GADD153 promoter” (Research Development Foundation, priority 2000, dated 2002).

“And” between values parts separate entries of the source, which are not always exact repeats. Equal values may be shown once. Read-outs that look alike come from different tables or passages of the source. Starred links: 1 amine or outer side, 2 acyl side, 3 side chain; linkers in the order of their positions; H or OH if unused. Positions of bridges follow the written chain, without caps; N, C: chain ends. Non-standard residues stand in square brackets, D forms with d. Residues, ends and D or L forms follow the SMILES beside them. Chains are numbered I, II in the order given. Actinocin(9to1) = Cc1c2oc3c(C)ccc(C(=O)[*:1])c3nc-2c(C(=O)[*:2])c(N)c1=O; NMeV = CN[C@H](C(=O)O)C(C)C; Sar = CNCC(=O)O

The subject of data set [1] is T10b45 cells. The data set is described as follows: Clonogenic (colony-forming) assay. It is filed as cell-based, human.
Data set [2] has as its system GADD153 promoter activity in T10b45 cells.
Method: T10b45 cells were harvested 4 days following exposure to the injurious agent, washed once and resuspended in PBS. Cytometric analysis was performed using a Becton Dickinson (Mountain View, Calif.) FACScan equipped with an argon ion laser tuned to 488 nm to excite EGFP, and a 515/545 bandpass filter to monitor the green fluorescence emitted by EGFP. The acquired data were analyzed with the CELLQuest program. Twenty thousand events were collected for each sample. An analytical gate was set such that less than 0.2% of the untreated cells exceeded the gate. The relative fold induction was calculated by dividing the percent of treated cells in the gated region by that of untreated cells harvested at same time.
Three hundred thousand T10b45 cells were seeded into 60 mm tissue culture dishes and treated 24 h later so that all experiments were performed with cells in the logarithmic phase of growth. The chemical agents were added directly to the tissue culture media. At the indicated times, the medium was removed and the cells were washed twice with serum-free medium and then incubated for 4 days in fresh drug-free medium at 37° C. following which they were subjected to flow cytometric analysis.
For data set [3] the following is noted: in this strain (BALB/c nu/nu mice); cited from earlier work.
For data set [4], the system named is T10b45 xenografts. The data set is described as follows: EGFP expression in T10b45 xenografts in vivo. Set-up: species or system BALB/c nu/nu mice. As to conditions: for tumor cells expressing EGFP: tumors harvested 4 days later, ± SD.
The test system of data set [5] is GADD153 mRNA. As to conditions: UMSCC10b xenografts in nude mice, 50 mg/kg, 24 hr post-treatment, relative to untreated mice; ± SD; cited from earlier work.
[6] abbreviates: colony-forming assay, 1 hour drug exposure, colonies scored after 14 days, mean ± SD, n = 3.
[7] abbreviates: 500 μM, 1 h exposure, GFP 4 days after treatment, relative to untreated control.
[8] abbreviates: T10b45 cells, 4 days after the insult, conditions of maximal activation (Table 1).
Where [9] appears, read: quotient of fold increase in EGFP-expressing cells and Pt in DNA at 10 × IC50, mean ± SD, n = 3.
The mark [10] stands for this setting: 50 nM, 4 h exposure, GFP 4 days after treatment, relative to untreated control.
Setting [11] is: 50 μM, 1 h exposure, GFP 4 days after treatment, relative to untreated control.

In general, IC50 refers to the concentration that gives 50% inhibition. High values mean lower potency, low ones higher potency. As to `O=C1[O][Pt]2([NH][C@@H]3CCCC[C@H]3[NH]2)[O]C1=O` [Oxaliplatin], 5.1 ± 0.29 µM corresponded to half-maximal inhibition in data set [1] (IC50). Further, in data set [2], the “GFP fold induction at 10 × IC50” value turned out to be 100 ± 5.3, the “Induction Ratio” value came out at 105, the “Relative EGFP activation potency at 10 × IC50” value is 5496.0 ± 655.6 fold induction/ng Pt/ug DNA and the “activation of EGFP expression (in words)” value is reported as “strongly activated”.
In turn, `N.N.[Cl][Pt+2][Cl]` [Transplatin, transplatin] returned an IC50 in data set [1] (setting [6]) of 379 ± 31.6 µM. Further, the “GFP fold induction at 10 × IC50” value in data set [2] was determined as 10 ± 2.0. Besides, the “Induction Ratio” value in data set [2] (setting [7]) was 1. The “activation of EGFP expression (in words)” value in data set [2] (setting [8]) is on record as “failed to produce significant activation”. For the same compound, the “Relative EGFP activation potency at 10 × IC50” value in data set [2] (setting [9]) is reported as 41.3 ± 8.5 fold induction/ng Pt/ug DNA.
For the compound `Nc1ccn([C@@H]2O[C@H](CO)[C@@H](O)C2(F)F)c(=O)n1` [Gemcitabine, gemcitabine], the “Induction Ratio” value in data set [2] (setting [10]) is recorded as 0.6. In addition, in data set [2] (setting [8]), the “activation of EGFP expression (in words)” value was “relatively impotent”.
Consider `CC(=O)O[C@H]1C(=O)[C@@]2(C)[C@H]([C@H](OC(=O)c3ccccc3)[C@]3(O)C[C@H](OC(=O)[C@H](O)[C@@H](NC(=O)c4ccccc4)c4ccccc4)C(C)=C1C3(C)C)[C@]1(OC(C)=O)CO[C@@H]1C[C@@H]2O` [Paclitaxel, paclitaxel], for which the “Induction Ratio” value in data set [2] (70 nM, 4 h exposure, GFP 4 days after treatment, relative to untreated control) was determined as 2.8. In addition, in data set [2] (setting [8]), the “activation of EGFP expression (in words)” value was “relatively impotent”.
`CC(=O)[O][Pt]([NH2])([Cl])([Cl])([NH]C1CCCCC1)[O]C(C)=O` [JM216] displayed an IC50 in data set [1] (setting [6]) of 4.5 ± 0.35 µM. For the same compound, the “GFP fold induction at 10 × IC50” value in data set [2] amounted to 11 ± 3.2. The “Induction Ratio” value in data set [2] (150 μM, 1 h exposure, GFP 4 days after treatment, relative to untreated control) came to 43. The “activation of EGFP expression (in words)” value in data set [2] (setting [8]) was “strongly activated”. The “Relative EGFP activation potency at 10 × IC50” value in data set [2] (setting [9]) is 70.6 ± 20.5 fold induction/ng Pt/ug DNA.
In the case of `N.N.[Cl][Pt][Cl]` [Cisplatin], the LD10 in data set [3] is given as 12 mg/kg. Besides, the IC50 in data set [1] (setting [6]) was 4.2 ± 0.03 µM. In data set [4] (5 mg/kg single i.p., 4 days, relative to untreated tumors), the “fold increase in the fraction of EGFP-expressing cells” value is on record as 3.8 fold. For the same compound, the “fold increase in the fraction of cells expressing EGFP” value in data set [4] (15 mg/kg single i.p., 4 days, relative to untreated tumors) was 29 fold and 29.2±6.2 fold. The “tumor cells expressing EGFP” value in data set [4] (cisplatin 5 mg/kg single i.p.) is reported as 0.49±0.5%. Further, the “tumor cells expressing EGFP” value in data set [4] (cisplatin 15 mg/kg single i.p., untreated 0.13±0.02 %) is reported as 3.8±0.8%. Besides, in data set [2], the “GFP fold induction at 10 × IC50” value was determined as 38 ± 3.2 and the “Relative EGFP activation potency at 10 × IC50” value is 825.0 ± 29.4 fold induction/ng Pt/ug DNA. Also, the “Induction Ratio” value in data set [2] (setting [11]) is recorded as 42. Further, the “activation of EGFP expression (in words)” value in data set [2] (setting [8]) was “strongly activated”. Besides, the “GADD153 mRNA level increase” value in data set [5] was 3.0±0.4 fold.
In the case of `COc1cccc2c1C(=O)c1c(O)c3c(c(O)c1C2=O)C[C@@](O)(C(=O)CO)C[C@@H]3O[C@H]1C[C@H](N)[C@H](O)[C@H](C)O1` [Doxorubicin, doxorubicin], the “Induction Ratio” value in data set [2] (100 nM, 4 h exposure, GFP 4 days after treatment, relative to untreated control) came to 2.4. The “activation of EGFP expression (in words)” value in data set [2] (setting [8]) is “relatively impotent”.
On to `OO` [Hydrogen peroxide, hydrogen peroxide], for which, in data set [2] (setting [7]), the “Induction Ratio” value is recorded as 13. Besides, the “activation of EGFP expression (in words)” value in data set [2] (setting [8]) was “strongly activated”.
As to `COc1cc([C@@H]2c3cc4c(cc3[C@@H](O[C@@H]3O[C@@H]5CO[C@@H](C)O[C@H]5[C@H](O)[C@H]3O)[C@H]3COC(=O)[C@H]23)OCO4)cc(OC)c1O` [Etoposide, etoposide], in data set [2] (5 μM, 4 h exposure, GFP 4 days after treatment, relative to untreated control), the “Induction Ratio” value is reported as 4. Besides, the “activation of EGFP expression (in words)” value in data set [2] (setting [8]) is reported as “relatively impotent”.
`CC[C@@]1(O)C(=O)OCc2c1cc1n(c2=O)Cc2cc3c(CN(C)C)c(O)ccc3nc2-1` [Topotecan]: the “Induction Ratio” value in data set [2] (20 nM, 4 h exposure, GFP 4 days after treatment, relative to untreated control) is 1.3. For the same compound, the “activation of EGFP expression (in words)” value in data set [2] (setting [8]) was “relatively impotent”.
In the case of `O=NN(CCCl)C(=O)NCCCl` [BCNU], in data set [2], the “Induction Ratio” value amounted to 4 and the “activation of EGFP expression (in words)” value is given as “failed to produce significant activation”.
For `C[C@@]1(CO)[C@H](O)CC[C@@]2(C)[C@H]1CC[C@H]1C[C@@H]3C[C@@]12CC[C@]3(O)CO` [Aphidicolin, aphidicolin], the “Induction Ratio” value in data set [2] (20 μM, 24 h exposure, GFP 4 days after treatment, relative to untreated control) was determined as 2.5. In addition, the “activation of EGFP expression (in words)” value in data set [2] (setting [8]) was “relatively impotent”.
As for `Cc1c2oc3c(C)ccc(C(=O)N[C@@H]4C(=O)N[C@H](C(C)C)C(=O)N5CCC[C@H]5C(=O)N(C)CC(=O)N(C)[C@@H](C(C)C)C(=O)O[C@@H]4C)c3nc-2c(C(=O)N[C@@H]2C(=O)N[C@H](C(C)C)C(=O)N3CCC[C@H]3C(=O)N(C)CC(=O)N(C)[C@@H](C(C)C)C(=O)O[C@@H]2C)c(N)c1=O` [Actinomycin D, actinomycin D] (I: T[dV]P[Sar][NMeV] / II: T[dV]P[Sar][NMeV]; ester I:1-I:C, II:1-II:C; linker I:N-II:N via Actinocin(9to1)), in data set [2], the “Induction Ratio” value came out at 7.6 and the “activation of EGFP expression (in words)” value is “strongly activated”.
Take `Cc1nc2ccc(CN(C)c3ccc(C(=O)N[C@@H](CCC(=O)O)C(=O)O)s3)cc2c(=O)[nH]1` [Raltitrexed]: in data set [2] (setting [10]), the “Induction Ratio” value came to 0.6. The “activation of EGFP expression (in words)” value in data set [2] (setting [8]) was “relatively impotent”.
Consider `N.N.O=C([O-])C1(C(=O)[O-])CCC1.[Pt+2]` [Carboplatin, carboplatin], for which, in data set [1] (setting [6]), the midpoint of inhibition, the IC50, lay at 10.7 ± 0.83 µM. Besides, the “GFP fold induction at 10 × IC50” value in data set [2] is on record as 23 ± 2.6. For the same compound, the “Induction Ratio” value in data set [2] (200 μM, 42 h exposure (so in the source), GFP 4 days after treatment, relative to untreated control) worked out at 33. For the same compound, the “activation of EGFP expression (in words)” value in data set [2] (setting [8]) was “strongly activated”. Further, in data set [2] (setting [9]), the “Relative EGFP activation potency at 10 × IC50” value is recorded as 750.4 ± 22.1 fold induction/ng Pt/ug DNA.
With `O=c1[nH]cc(F)c(=O)[nH]1` [5-Fluorouracil], the “Induction Ratio” value in data set [2] (50 μM, 4 h exposure, GFP 4 days after treatment, % GFP expressing cells relative to untreated control) came to 3.0. Besides, in data set [2] (setting [8]), the “activation of EGFP expression (in words)” value was “relatively impotent”.
In turn, `N[C@@H]1CCCC[C@H]1N.[Cl][Pt+2]([Cl])([Cl])[Cl]` [Tetraplatin, tetraplatin] showed an IC50 in data set [1] (setting [6]) of 3.3 ± 0.17 µM. Also, the “GFP fold induction at 10 × IC50” value in data set [2] is given as 120 ± 7.8. In data set [2] (setting [11]), the “Induction Ratio” value is recorded as 143. In addition, in data set [2] (setting [8]), the “activation of EGFP expression (in words)” value is reported as “strongly activated”. Besides, in data set [2] (setting [9]), the “Relative EGFP activation potency at 10 × IC50” value was 10482.7 ± 516.9 fold induction/ng Pt/ug DNA.
